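1) Cells in 96-well plates. 2) Compound, 48 h, 5 concentrations. 3) Linear interpolation between surrounding doses. 4) Unreached endpoint = highest concentration. Abbreviation: GI50, concentration required for 50% inhibition of growth.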 Calls of active or inactive are those of the source. Cut-off read from the data, not from the text of the source: active = GI50 up to about 1.1 µM and inactive = higher.
Tests used:
Assay in all cases: NCI tumour cell line growth inhibition, 48 h
NCI-H522 = tested on: NCI-H522
NCI/ADR-RES = tested on: NCI/ADR-RES
HT-29 = tested on: HT-29
HOP-62 = tested on: HOP-62
SF-268 = tested on: SF-268
SK-OV-3 = tested on: SK-OV-3
K562 = tested on: K562
SW-620 = tested on: SW-620
SK-MEL-5 = tested on: SK-MEL-5
RXF 393 = tested on: RXF 393
NCI-H23 = tested on: NCI-H23
COLO 205 = tested on: COLO 205
OVCAR-5 = tested on: OVCAR-5
UACC-257 = tested on: UACC-257
SF-539 = tested on: SF-539
T47D = tested on: T47D
MOLT-4 = tested on: MOLT-4
BT-549 = tested on: BT-549
UACC-62 = tested on: UACC-62
PC-3 = tested on: PC-3
SK-MEL-2 = tested on: SK-MEL-2
MDA-MB-231 = tested on: MDA-MB-231
Hs-578T = tested on: Hs-578T
ACHN = tested on: ACHN
HCT-116 = tested on: HCT-116
HCC 2998 = tested on: HCC 2998
A498 = tested on: A498
786-0 = tested on: 786-0
TK-10 = tested on: TK-10
NCI-H226 = tested on: NCI-H226
MCF7 = tested on: MCF7
KM12 = tested on: KM12
OVCAR-3 = tested on: OVCAR-3
CAKI-1 = tested on: CAKI-1
IGROV-1 = tested on: IGROV-1
SN12C = tested on: SN12C
Malme-3M = tested on: Malme-3M
DU-145 = tested on: DU-145
HCT-15 = tested on: HCT-15
U-251 = tested on: U-251
HL-60 = tested on: HL-60
UO-31 = tested on: UO-31
MDA-N = tested on: MDA-N
SF-295 = tested on: SF-295
SR = tested on: SR
M14 = tested on: M14
NCI-H460 = tested on: NCI-H460
A549 = tested on: A549
MDA-MB-435 = tested on: MDA-MB-435
SNB-75 = tested on: SNB-75
CCRF-CEM = tested on: CCRF-CEM
EKVX = tested on: EKVX
SNB-19 = tested on: SNB-19
LOX IMVI = tested on: LOX IMVI
RPMI-8226 = tested on: RPMI-8226
OVCAR-4 = tested on: OVCAR-4
HOP-92 = tested on: HOP-92
SK-MEL-28 = tested on: SK-MEL-28
OVCAR-8 = tested on: OVCAR-8

With `Fc1cc(C2=C[C@H](c3ccc(Cl)cc3)NC(=S)N2)c(Cl)cc1Cl` the GI50 (NCI-H522) was 34 µM (inactive), the GI50 (NCI/ADR-RES) was 64.1 µM (inactive) and the GI50 (HT-29) was 36.5 µM (inactive). The GI50 (HOP-62) was 48.2 µM (inactive), the GI50 (SF-268) was 65.8 µM (inactive) and the GI50 (SK-OV-3) was > 100 µM (inactive). The GI50 (K562) was 5.62 µM (inactive), the GI50 (SW-620) was 70.6 µM (inactive) and the GI50 (SK-MEL-5) was 11.6 µM (inactive). For the same molecule, the GI50 (RXF 393) was 31.1 µM (inactive), the GI50 (NCI-H23) was 63.8 µM (inactive) and the GI50 (COLO 205) was 47 µM (inactive). The GI50 (OVCAR-5) was > 100 µM (inactive), the GI50 (UACC-257) was 31.6 µM (inactive) and the GI50 (SF-539) was > 100 µM (inactive). The GI50 (T47D) was 19.2 µM (inactive), the GI50 (MOLT-4) was 15.6 µM (inactive) and the GI50 (BT-549) was > 100 µM (inactive). For the same molecule, the GI50 (UACC-62) was 57 µM (inactive), the GI50 (PC-3) was 28.3 µM (inactive) and the GI50 (SK-MEL-2) was 27.2 µM (inactive). For the same molecule, the GI50 (MDA-MB-231) was 23.7 µM (inactive), the GI50 (Hs-578T) was > 100 µM (inactive) and the GI50 (ACHN) was 37.8 µM (inactive). The GI50 (HCT-116) was 35.8 µM (inactive), the GI50 (HCC 2998) was 23.3 µM (inactive) and the GI50 (A498) was 27.7 µM (inactive). The GI50 (786-0) was 47.9 µM (inactive), the GI50 (TK-10) was 45.1 µM (inactive) and the GI50 (NCI-H226) was 88.7 µM (inactive). For the same molecule, the GI50 (MCF7) was 31.2 µM (inactive), the GI50 (KM12) was 49.4 µM (inactive) and the GI50 (OVCAR-3) was 33.1 µM (inactive). For the same molecule, the GI50 (CAKI-1) was 43 µM (inactive), the GI50 (IGROV-1) was 41.2 µM (inactive) and the GI50 (SN12C) was 29.3 µM (inactive). The GI50 (Malme-3M) was > 100 µM (inactive), the GI50 (DU-145) was 62.8 µM (inactive) and the GI50 (HCT-15) was 46.8 µM. The GI50 (U-251) was 29.6 µM (inactive), the GI50 (HL-60) was 20.6 µM (inactive) and the GI50 (UO-31) was 42.2 µM (inactive). For the same molecule, the GI50 (MDA-N) was 47.4 µM (inactive), the GI50 (SF-295) was 28.2 µM (inactive) and the GI50 (SR) was 40.6 µM (inactive). The GI50 (M14) was 54.3 µM (inactive), the GI50 (NCI-H460) was 34 µM (inactive) and the GI50 (A549) was 47.3 µM (inactive). For the same molecule, the GI50 (MDA-MB-435) was 43.9 µM (inactive), the GI50 (SNB-75) was 37.6 µM (inactive) and the GI50 (CCRF-CEM) was 28.9 µM (inactive). The GI50 (EKVX) was 31.6 µM (inactive), the GI50 (SNB-19) was 76.7 µM (inactive) and the GI50 (LOX IMVI) was 48.6 µM (inactive). The GI50 (RPMI-8226) was 14.9 µM (inactive), the GI50 (OVCAR-4) was 35.7 µM (inactive) and the GI50 (HOP-92) was 27.2 µM (inactive). For the same molecule, the GI50 (SK-MEL-28) was > 100 µM (inactive) and the GI50 (OVCAR-8) was 39.9 µM (inactive).

With `C=C[C@@]1(C)CC(=O)[C@]2(O)[C@@]3(C)[C@@H](O)CCC(C)(C)[C@@H]3[C@H](O)[C@@H](OC(C)=O)[C@@]2(C)O1` the GI50 (NCI-H522) was > 100 µM (inactive), the GI50 (NCI/ADR-RES) was > 100 µM (inactive) and the GI50 (HT-29) was 68.7 µM (inactive). The GI50 (HOP-62) was > 100 µM (inactive), the GI50 (SF-268) was > 100 µM (inactive) and the GI50 (SK-OV-3) was 95.1 µM (inactive). The GI50 (K562) was > 100 µM (inactive), the GI50 (SW-620) was > 100 µM (inactive) and the GI50 (SK-MEL-5) was > 100 µM (inactive). For the same molecule, the GI50 (RXF 393) was 11.2 µM (inactive), the GI50 (NCI-H23) was > 100 µM (inactive) and the GI50 (COLO 205) was > 100 µM (inactive). The GI50 (OVCAR-5) was 72.6 µM (inactive), the GI50 (UACC-257) was > 100 µM (inactive) and the GI50 (SF-539) was > 100 µM (inactive). The GI50 (T47D) was 54.5 µM (inactive), the GI50 (MOLT-4) was 30.2 µM (inactive) and the GI50 (BT-549) was > 100 µM (inactive). For the same molecule, the GI50 (UACC-62) was > 100 µM (inactive), the GI50 (PC-3) was > 100 µM (inactive) and the GI50 (SK-MEL-2) was > 100 µM (inactive). For the same molecule, the GI50 (MDA-MB-231) was 6.18 µM (inactive), the GI50 (Hs-578T) was 70.1 µM (inactive) and the GI50 (ACHN) was > 100 µM (inactive). For the same molecule, the GI50 (HCT-116) was > 100 µM (inactive), the GI50 (HCC 2998) was > 100 µM (inactive) and the GI50 (A498) was > 100 µM (inactive). For the same molecule, the GI50 (786-0) was > 100 µM (inactive), the GI50 (TK-10) was > 100 µM (inactive) and the GI50 (NCI-H226) was > 100 µM (inactive). The GI50 (MCF7) was 22.1 µM (inactive), the GI50 (KM12) was 1.7 µM (inactive) and the GI50 (OVCAR-3) was > 100 µM (inactive). For the same molecule, the GI50 (CAKI-1) was 27.1 µM (inactive), the GI50 (IGROV-1) was > 100 µM (inactive) and the GI50 (SN12C) was 57.7 µM (inactive). For the same molecule, the GI50 (Malme-3M) was > 100 µM (inactive), the GI50 (DU-145) was > 100 µM (inactive) and the GI50 (HCT-15) was > 100 µM. For the same molecule, the GI50 (U-251) was > 100 µM (inactive), the GI50 (HL-60) was 48.6 µM (inactive) and the GI50 (UO-31) was 60.4 µM (inactive). For the same molecule, the GI50 (MDA-N) was > 100 µM (inactive), the GI50 (SF-295) was > 100 µM (inactive) and the GI50 (SR) was > 100 µM (inactive). For the same molecule, the GI50 (M14) was > 100 µM (inactive), the GI50 (NCI-H460) was > 100 µM (inactive) and the GI50 (A549) was > 100 µM (inactive). The GI50 (MDA-MB-435) was > 100 µM (inactive), the GI50 (SNB-75) was > 100 µM (inactive) and the GI50 (CCRF-CEM) was > 100 µM (inactive). For the same molecule, the GI50 (EKVX) was > 100 µM (inactive), the GI50 (SNB-19) was > 100 µM (inactive) and the GI50 (LOX IMVI) was > 100 µM (inactive). The GI50 (RPMI-8226) was 18.7 µM (inactive), the GI50 (OVCAR-4) was > 100 µM (inactive) and the GI50 (HOP-92) was > 100 µM (inactive). For the same molecule, the GI50 (SK-MEL-28) was > 100 µM (inactive) and the GI50 (OVCAR-8) was > 100 µM (inactive).

Reference: ChEMBL document CHEMBL1201862, “PubChem BioAssay data set” (2004)
